Source: ChEMBL document CHEMBL2375290, “Nonclassical antifolates, part 3: synthesis, biological evaluation and molecular modeling study of some new 2-heteroarylthio-quinazolin-4-ones” (Eur J Med Chem, 2013)

Columns and labels:
[1] = system: HL-60(TB); experiment: Cytotoxicity against human HL-60(TB) cells at 10 uM after 48 hrs by coulter counter analysis; format: functional; conditions: HL-60, 48 h, read-out: GI
[2] = system: A549; experiment: Cytotoxicity against human A549/ATCC cells at 10 uM after 48 hrs by coulter counter analysis; format: functional; conditions: A549, 48 h, read-out: GI
[3] = system: NCI-H522; experiment: Cytotoxicity against human NCI-H522 cells at 10 uM after 48 hrs by coulter counter analysis; format: functional; conditions: NCI-H522, 48 h, read-out: GI
[4] = system: T47D; experiment: Cytotoxicity against human T47D cells at 10 uM after 48 hrs by coulter counter analysis; format: functional; conditions: read-out: GI
[5] = system: MCF7; experiment: Cytotoxicity against human MCF7 cells at 10 uM after 48 hrs by coulter counter analysis; format: functional; conditions: MCF7, 48 h, read-out: GI
[6] = system: Pseudomonas aeruginosa; experiment: Antimicrobial activity against Pseudomonas aeruginosa at 200 ug after 24 hrs by agar disc diffusion method; format: functional; conditions: read-out: DIZ
[7] = system: SN12C; experiment: Cytotoxicity against human SN12C cells at 10 uM after 48 hrs by coulter counter analysis; format: functional; conditions: read-out: GI
[8] = system: LOX IMVI; experiment: Cytotoxicity against human LOXIMVI cells at 10 uM after 48 hrs by coulter counter analysis; format: functional; conditions: read-out: GI
[9] = system: SF-295; experiment: Cytotoxicity against human SF295 cells at 10 uM after 48 hrs by coulter counter analysis; format: functional; conditions: SF-295, 48 h, read-out: GI
[10] = system: NCI-H23; experiment: Cytotoxicity against human NCI-H23 cells at 10 uM after 48 hrs by coulter counter analysis; format: functional; conditions: NCI-H23, 48 h, read-out: GI
[11] = system: UACC-62; experiment: Cytotoxicity against human UACC62 cells at 10 uM after 48 hrs by coulter counter analysis; format: functional; conditions: UACC-62, 48 h, read-out: GI
[12] = molecular target: T1, Dihydrofolate reductase (Bos taurus, UniProt P00376); experiment: Inhibition of bovine DHFR after 2 mins by spectrophotometry
T1 sequence (P00376 whole entry): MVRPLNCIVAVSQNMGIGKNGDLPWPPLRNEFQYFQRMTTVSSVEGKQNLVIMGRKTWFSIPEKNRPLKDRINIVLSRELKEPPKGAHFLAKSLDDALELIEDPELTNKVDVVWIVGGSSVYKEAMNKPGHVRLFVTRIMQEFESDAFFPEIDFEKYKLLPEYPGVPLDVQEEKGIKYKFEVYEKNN

[13] = system: SK-MEL-5; experiment: Cytotoxicity against human SK-MEL-5 cells at 10 uM after 48 hrs by coulter counter analysis; format: functional; conditions: SK-MEL-5, 48 h, read-out: GI
[14] = system: RXF 393; experiment: Cytotoxicity against human RXF393 cells at 10 uM after 48 hrs by coulter counter analysis; format: functional; conditions: RXF 393, 48 h, read-out: GI
[15] = system: CCRF-CEM; experiment: Cytotoxicity against human CCRF-CEM cells at 10 uM after 48 hrs by coulter counter analysis; format: functional; conditions: read-out: GI
[16] = system: MDA-MB-435; experiment: Cytotoxicity against human MDA-MB-435 cells at 10 uM after 48 hrs by coulter counter analysis; format: functional; conditions: MDA-MB-435, 48 h, read-out: GI
[17] = system: PC-3; experiment: Cytotoxicity against human PC3 cells at 10 uM after 48 hrs by coulter counter analysis; format: functional; conditions: PC-3, 48 h, read-out: GI
[18] = system: Micrococcus luteus; experiment: Antimicrobial activity against Micrococcus luteus at 200 ug after 24 hrs by agar disc diffusion method; format: functional; conditions: read-out: DIZ
[19] = system: SR; experiment: Cytotoxicity against human SR cells at 10 uM after 48 hrs by coulter counter analysis; format: functional; conditions: read-out: GI
[20] = system: IGROV-1; experiment: Cytotoxicity against human IGROV1 cells at 10 uM after 48 hrs by coulter counter analysis; format: functional; conditions: IGROV-1, 48 h, read-out: GI
[21] = system: Malme-3M; experiment: Cytotoxicity against human MALME-3M cells at 10 uM after 48 hrs by coulter counter analysis; format: functional; conditions: read-out: GI
[22] = system: SNB-19; experiment: Cytotoxicity against human SNB19 cells at 10 uM after 48 hrs by coulter counter analysis; format: functional; conditions: SNB-19, 48 h, read-out: GI
[23] = system: Staphylococcus aureus; experiment: Antimicrobial activity against Staphylococcus aureus at 200 ug after 24 hrs by agar disc diffusion method; format: functional; conditions: read-out: DIZ
[24] = system: OVCAR-4; experiment: Cytotoxicity against human OVCAR4 cells at 10 uM after 48 hrs by coulter counter analysis; format: functional; conditions: OVCAR-4, 48 h, read-out: GI
[25] = system: A498; experiment: Cytotoxicity against human A498 cells at 10 uM after 48 hrs by coulter counter analysis; format: functional; conditions: A498, 48 h, read-out: GI
[26] = system: SNB-75; experiment: Cytotoxicity against human SNB75 cells at 10 uM after 48 hrs by coulter counter analysis; format: functional; conditions: SNB-75, 48 h, read-out: GI
[27] = Cytotoxicity against human EKVX cells at 10 uM after 48 hrs by coulter counter analysis; format: functional; conditions: read-out: GI
[28] = system: Hs-578T; experiment: Cytotoxicity against human Hs578T cells at 10 uM after 48 hrs by coulter counter analysis; format: functional; conditions: read-out: GI
[29] = system: NCI-H226; experiment: Cytotoxicity against human NCI-H226 cells at 10 uM after 48 hrs by coulter counter analysis; format: functional; conditions: NCI-H226, 48 h, read-out: GI
[30] = system: MDA-MB-231; experiment: Cytotoxicity against human MDA-MB-231 cells at 10 uM after 48 hrs by coulter counter analysis; format: functional; conditions: MDA-MB-231, 48 h, read-out: GI
[31] = system: Escherichia coli; experiment: Antimicrobial activity against Escherichia coli at 200 ug after 24 hrs by agar disc diffusion method; format: functional; conditions: read-out: DIZ
[32] = system: Bacillus subtilis; experiment: Antimicrobial activity against Bacillus subtilis at 200 ug after 24 hrs by agar disc diffusion method; format: functional; conditions: read-out: DIZ
[33] = Cytotoxicity against human NCI-ADR-RES cells at 10 uM after 48 hrs by coulter counter analysis; format: functional; conditions: read-out: GI
[34] = system: UO-31; experiment: Cytotoxicity against human UO31 cells at 10 uM after 48 hrs by coulter counter analysis; format: functional; conditions: UO-31, 48 h, read-out: GI
[35] = system: MOLT-4; experiment: Cytotoxicity against human MOLT4 cells at 10 uM after 48 hrs by coulter counter analysis; format: functional; conditions: MOLT-4, 48 h, read-out: GI
[36] = system: CAKI-1; experiment: Cytotoxicity against human Caki1 cells at 10 uM after 48 hrs by coulter counter analysis; format: functional; conditions: CAKI-1, 48 h, read-out: GI
[37] = system: RPMI-8226; experiment: Cytotoxicity against human RPMI8226 cells at 10 uM after 48 hrs by coulter counter analysis; format: functional; conditions: RPMI-8226, 48 h, read-out: GI

| Structure (SMILES) | inhibition of growth at 10 µM [1] | inhibition of growth at 10 µM [2] | inhibition of growth at 10 µM [3] | inhibition of growth at 10 µM [4] | inhibition of growth at 10 µM [5] | zone of inhibition at 200 µg/disc [6] | inhibition of growth at 10 µM [7] | inhibition of growth at 10 µM [8] | inhibition of growth at 10 µM [9] | inhibition of growth at 10 µM [10] | inhibition of growth at 10 µM [11] | IC50 [12] | inhibition of growth at 10 µM [13] | inhibition of growth at 10 µM [14] | inhibition of growth at 10 µM [15] | inhibition of growth at 10 µM [16] | inhibition of growth at 10 µM [17] | zone of inhibition at 200 µg/disc [18] | inhibition of growth at 10 µM [19] | inhibition of growth at 10 µM [20] | further results |
| --- | --- | --- | --- | --- | --- | --- | --- | --- | --- | --- | --- | --- | --- | --- | --- | --- | --- | --- | --- | --- | --- |
| O=C(O)c1cccnc1Sc1nc2ccc(Cl)cc2c(=O)n1-c1ccccc1 | < 10% | < 10% | < 10% | 15% | < 10% | 8 mm | < 10% | < 10% | < 10% | < 10% | < 10% | 8 µM | < 10% | < 10% | < 10% | < 10% | < 10% | 8 mm | < 10% | < 10% | inhibition of growth at 10 µM [21]: < 10%; inhibition of growth at 10 µM [22]: < 10%; zone of inhibition at 200 µg/disc [23]: 15 mm; inhibition of growth at 10 µM [24]: < 10%; inhibition of growth at 10 µM [25]: < 10%; inhibition of growth at 10 µM [26]: < 10%; inhibition of growth at 10 µM [27]: < 10%; inhibition of growth at 10 µM [28]: < 10%; inhibition of growth at 10 µM [29]: 15.1%; inhibition of growth at 10 µM [30]: 10.4%; zone of inhibition at 200 µg/disc [31]: 8 mm; zone of inhibition at 200 µg/disc [32]: 16 mm; inhibition of growth at 10 µM [33]: < 10%; inhibition of growth at 10 µM [34]: 20.5%; inhibition of growth at 10 µM [35]: < 10%; inhibition of growth at 10 µM [36]: < 10%; inhibition of growth at 10 µM [37]: < 10% |
| O=C(O)c1cccnc1Sc1nc2ccc(Cl)cc2c(=O)n1Cc1ccccc1 | < 10% | < 10% | 13.1% | 14.1% | < 10% | 8 mm | < 10% | 13.6% | 15.7% | < 10% | 16.7% | 10 µM | < 10% | < 10% | 17.8% | < 10% | 25.2% | 8 mm | 32.8% | 14.7% | inhibition of growth at 10 µM [21]: < 10%; inhibition of growth at 10 µM [22]: < 10%; zone of inhibition at 200 µg/disc [23]: 14 mm; inhibition of growth at 10 µM [24]: 20.6%; inhibition of growth at 10 µM [25]: < 10%; inhibition of growth at 10 µM [26]: 18.4%; inhibition of growth at 10 µM [27]: 25.4%; inhibition of growth at 10 µM [28]: < 10%; inhibition of growth at 10 µM [29]: 18.4%; inhibition of growth at 10 µM [30]: 24.7%; zone of inhibition at 200 µg/disc [31]: 8 mm; zone of inhibition at 200 µg/disc [32]: 18 mm; inhibition of growth at 10 µM [33]: < 10%; inhibition of growth at 10 µM [34]: 20.3%; inhibition of growth at 10 µM [35]: 16.7%; inhibition of growth at 10 µM [36]: 30.3%; inhibition of growth at 10 µM [37]: 16.3% |
| Cc1ccc2nc(Sc3cnc(N)s3)n(Cc3ccccc3)c(=O)c2c1 | < 10% | < 10% | < 10% | < 10% | 10.8% | 8 mm | < 10% | 10.4% | 17.3% | < 10% | 12.2% | 1 µM | < 10% | < 10% | < 10% | < 10% | 22.6% | 8 mm | < 10% | 21.8% | inhibition of growth at 10 µM [21]: 12.3%; inhibition of growth at 10 µM [22]: < 10%; zone of inhibition at 200 µg/disc [23]: 8 mm; inhibition of growth at 10 µM [24]: < 10%; inhibition of growth at 10 µM [25]: < 10%; inhibition of growth at 10 µM [26]: 20.4%; inhibition of growth at 10 µM [27]: 25.9%; inhibition of growth at 10 µM [28]: < 10%; inhibition of growth at 10 µM [29]: 19.9%; inhibition of growth at 10 µM [30]: 15.2%; zone of inhibition at 200 µg/disc [31]: 8 mm; zone of inhibition at 200 µg/disc [32]: 8 mm; inhibition of growth at 10 µM [33]: < 10%; inhibition of growth at 10 µM [34]: 29.4%; inhibition of growth at 10 µM [35]: < 10%; inhibition of growth at 10 µM [36]: 30.3%; inhibition of growth at 10 µM [37]: 16.8% |
| Nc1ncc(Sc2nc3ccc(Cl)cc3c(=O)n2Cc2ccccc2)s1 | < 10% | < 10% | 16% | 10.4% | < 10% | 8 mm | < 10% | 14.9% | 16.6% | < 10% | 14.4% | 2 µM | < 10% | < 10% | 13.7% | < 10% | 28.2% | 8 mm | < 10% | 12% | inhibition of growth at 10 µM [21]: 10.8%; inhibition of growth at 10 µM [22]: < 10%; zone of inhibition at 200 µg/disc [23]: 16 mm; inhibition of growth at 10 µM [24]: 13.8%; inhibition of growth at 10 µM [25]: 11.2%; inhibition of growth at 10 µM [26]: 10.7%; inhibition of growth at 10 µM [27]: 11.9%; inhibition of growth at 10 µM [28]: < 10%; inhibition of growth at 10 µM [29]: 17.1%; inhibition of growth at 10 µM [30]: 11.2%; zone of inhibition at 200 µg/disc [31]: 15 mm; zone of inhibition at 200 µg/disc [32]: 18 mm; inhibition of growth at 10 µM [33]: < 10%; inhibition of growth at 10 µM [34]: 14.8%; inhibition of growth at 10 µM [35]: 16.8%; inhibition of growth at 10 µM [36]: 25.6%; inhibition of growth at 10 µM [37]: 18.9% |
